Read-outs that look alike come from different tables or passages of the source.
Key:
human α4β3γ2 = target: T1, human α4β3γ2 (Homo sapiens, UniProt P18507+P48169); experiment: [3H]-Ro 15-4513 competition binding; settings: at > 3 µM; data not shown
T1 construct: expressed in transfected cells; host or cells: HEK293-EBNA, transient
Method: (§1) HEK293-EBNA cells adapted to grow in suspension were transiently transfected with the plasmids containing the desired GABAA receptor subunit cDNAs at α, β, γ, 1:1:2 ratio using XtremeGENE Q2 (Cat. No. 03045595001, Roche Applied Science, RAS, Rotkreuz, Switzerland) as previously described. GABAA α1β2γ2, α2β3γ2, α3β3γ2, α4β3γ2, α5β3γ2 and α6β3γ2 receptor subtypes were expressed in this system. 48 h post transfection, the cells were harvested and washed three times with cold PBS and frozen at − 80 °C.
(§2) IC50 values were derived from the inhibition curve and Ki values were calculated as described below.

human α6β3γ2 = target: T2, human α6β3γ2 (Homo sapiens, UniProt P18507+Q16445); experiment: [3H]-Ro 15-4513 competition binding; settings: at > 3 µM; data not shown
T2 construct: expressed in transfected cells; host or cells: HEK293-EBNA, transient
Method: as §1, §2

Adenosine A2A = tested on: T3, Adenosine A2A; experiment: Cerep binding; parameters: species or system human; settings: 10 μM; [3H]CGS 21680; hum. recomb. (HEK-293)
T3 construct: host or cells: HEK-293

[1] = tested on: Adrenergic α1 (non-selective); experiment: Cerep binding; settings: 10 μM; [3H]prazosin; rat cerebral cortex
Muscarinic M3 = tested on: T4, Muscarinic M3; experiment: Cerep binding; parameters: species or system human; settings: 10 μM; [3H]4-DAMP; hum. recomb. (CHO)
T4 construct: host or cells: CHO

Prostanoid EP4 = tested on: T5, Prostanoid EP4; experiment: Cerep binding; parameters: species or system human; settings: 10 μM; [3H]PGE2; hum. recomb. (CHO)
T5 construct: host or cells: CHO

Prostanoid IP (PGI2) = tested on: T6, Prostanoid IP (PGI2); experiment: Cerep binding; parameters: species or system human; settings: 10 μM; [3H]iloprost; hum. recomb. (HEK-293)
T6 construct: host or cells: HEK-293

Purinergic P2X = experiment: Cerep binding; settings: 10 μM; [3H]α,β-MeATP; rat urinary bladder
Bombesin (non-selective) = experiment: Cerep binding; settings: 10 μM; [125I][Tyr4]bombesin; rat cerebral cortex
Cholecystokinin CCK1 = tested on: T7, Cholecystokinin CCK1; experiment: Cerep binding; parameters: species or system human; settings: 10 μM; [125I]CCK-8s; hum. recomb. (CHO)
T7 construct: purchased Eurofins Cerep

Cholecystokinin CCK2 = tested on: T8, Cholecystokinin CCK2; experiment: Cerep binding; parameters: species or system human; settings: 10 μM; [125I]CCK-8s; hum. recomb. (CHO)
T8 construct: purchased Eurofins Cerep

Endothelin ETB = tested on: T9, Endothelin ETB; experiment: Cerep binding; parameters: species or system human; settings: 10 μM; [125I]endothelin-1; hum. recomb. (CHO)
T9 construct: purchased Eurofins Cerep

Galanin 1 = tested on: T10, Galanin 1; experiment: Cerep binding; parameters: species or system human; settings: 10 μM; [125I]galanin; hum. recomb. (HEK-293)
T10 construct: purchased Eurofins Cerep

Chemokine CCR1 = tested on: T11, Chemokine CCR1; experiment: Cerep binding; parameters: species or system human; settings: 10 μM; [125I]MIP-1a; hum. recomb. (HEK-293)
T11 construct: purchased Eurofins Cerep

Opioid δ2 = tested on: T12, Opioid δ2; experiment: Cerep binding; parameters: species or system human; settings: 10 μM; [3H]DADLE; hum. recomb. (CHO)
T12 construct: host or cells: CHO

[2] = tested on: T13, Norepinephrine transporter; experiment: Cerep binding; parameters: species or system human; settings: 10 μM; [3H]nisoxetine; hum. recomb. (CHO)
T13 construct: host or cells: CHO

Dopamine transporter = tested on: T14, Dopamine transporter; experiment: Cerep binding; parameters: species or system human; settings: 10 μM; [3H]BTCP; hum. recomb. (CHO)
T14 construct: host or cells: CHO

Wistar rats = experiment: Pentylenetetrazole (PTZ) test; type: in vivo, rat
Method: PTZ was prepared in 0.9% saline and was administered s.c. in a volume of 1 mL/kg. The positive control FG7142, a non-selective GABAA receptor NAM, was prepared in 0.3% Tween 80 v/v saline and was administered i.p. in a volume of 1 mL/kg. […] During this period the number of rats showing tonic convulsions was noted.
FG7142 was administered at 10 mg/kg 30 min prior to PTZ. The percent of rats in each dose group showing tonic convulsions was compared to the control group by the Pearson Chi-Square test.

male Sprague-Dawley rats = experiment: Prepulse inhibition; type: in vivo, rat; settings: 1, 3 and 10 mg/kg p.o., 30 min prior to testing
Method: intensities (72, 76, 80, 84 dB) at total plasma concentrations of 56 ± 20, 169 ± 20, and […]
Compound administered at 1, 3 and 10 mg/kg p.o. to male Sprague-Dawley rats 30 min prior to testing. Bars indicate mean percent prepulse inhibition (% PPI) ± SEM; 10 animals per dose group. Background noise: 68 dB. Startle pulse: 12 0 dB. For full methods refer to:
Nordquist et al. (2008). Effects of aripiprazole/OPC-14597 on motor activity, pharmacological models of psychosis, and brain activity in rats. Neuropharmacology , 54,405-416.
Animals were euthanized at the end of testing and plasma samples were collected approximately 60 min post administration; n = 4 rats per group.
(1 picture or pasted object on this page, not shown here)

[3] = Pharmacokinetics, single oral dosing; type: in vivo; settings: plasma; for Tmax: read-out: Tmax (range)
Method: (§3) Concentrations were chosen to achieve the desired doses by administering 5 mL/kg to rats and 2.5 mL/kg to NHPs via oral gavage.
(§4) The calibration range was from 1.0 to 5000 ng/mL. After protein precipitation with ethanol, the sample solution was injected onto a Gemini C18 trapping column (2 × 10 mm; Phenomenex, Torrance, CA, USA) and polar endogenous compounds and salts were rinsed off. Analytical separation was performed on an Atlantis T3 column (2.1 × 50 mm) (Waters, Milford, MA, USA), using methanol/water containing 0.1% formic acid as mobile phase. A drug analogue was used as an internal standard.

[4] = Pharmacokinetics, single oral dosing; type: in vivo, Cynomolgus macaque; settings: cynomolgus monkey, plasma, 10 mg/kg oral, microsuspension, n = 3 male
Method: as §3, §4

[5] = Beagle, dog, 4 mg/kg oral, capsule, n = 3 male, ± standard deviation
[6] = C57/Bl6, mouse, 4 mg/kg oral, microsuspension, n = 2 male
[7] = Wistar, rat, 9 mg/kg oral, microsuspension, n = 2 male

SMILES: Cc1onc(-c2ccc(F)cc2)c1COc1ccc(C(=O)N2CCS(=O)(=O)CC2)cn1 [basmisanil]
- binding (human α4β3γ2): no binding
- binding (human α6β3γ2): no binding
- % Inhibition (Adenosine A2A): 9%
- % Inhibition [1]: -1%
- % Inhibition (Muscarinic M3): 4%
- % Inhibition (Prostanoid EP4): 3%
- % Inhibition (Prostanoid IP (PGI2)): -1%
- % Inhibition (Purinergic P2X): -7%
- % Inhibition (Bombesin (non-selective)): -24%
- % Inhibition (Cholecystokinin CCK1): 10%
- % Inhibition (Cholecystokinin CCK2): -21%
- % Inhibition (Endothelin ETB): -2%
- % Inhibition (Galanin 1): 0%
- % Inhibition (Chemokine CCR1): -2%
- % Inhibition (Opioid δ2): 8%
- % Inhibition [2]: 11%
- % Inhibition (Dopamine transporter): 19%
- proconvulsant activity (Wistar rats; female rats, 30 mg/kg, 2 h prior to PTZ 70 mg/kg): did not exert proconvulsant activity
- rats exhibiting tonic convulsions (Wistar rats; female rats, 100 mg/kg, threshold dose of PTZ, p < 0.05): five out of eight
- rats exhibiting tonic convulsions, compared with 100 mg/kg (Wistar rats; female rats, 300 and 600 mg/kg, p < 0.05): identical effects
- proconvulsant activity (Wistar rats; male rats, single doses up to 100 mg/kg, 1 h prior to PTZ 55 mg/kg): did not exert proconvulsant activity
- prepulse inhibition induced by prepulse intensities 72, 76, 80, 84 dB (male Sprague-Dawley rats): does not impair prepulse inhibition
- bioavailability ([3]; Beagle, dog, 4 mg/kg oral, capsule, n = 3 male): 61%
- Tmax ([3]; Beagle, dog, 4 mg/kg oral, capsule, n = 3 male, median): 90 min
- AUC(0-t) [3, 5]: 10600 ng·h/mL
- Cmax [3, 5]: 788 ± 275 ng/mL
- AUC(0-t) [3, 6]: 455 ng·h/mL
- Cmax [3, 6]: 520 ng/mL
- bioavailability [3, 6]: 25%
- Tmax [3, 6]: 18 min
- AUC(0-t) [3, 7]: 1100 ng·h/mL
- Cmax [3, 7]: 400 ng/mL
- bioavailability [3, 7]: 41%
- Tmax [3, 7]: 30 min
- bioavailability [4]: 48%
- Tmax ([4]; median, read-out: Tmax (range)): 1.5 h
- AUC(0-t) ([4]; ± standard deviation): 27500 ng·h/mL
- Cmax ([4]; ± standard deviation): 3650 ± 110 ng/mL

— publication PMC8032764 (Scientific Reports, 2021)
